For assay [1], the target named is T1, Dihydrofolate reductase (Pneumocystis carinii, UniProt P16184).
T1 sequence (P16184 whole entry): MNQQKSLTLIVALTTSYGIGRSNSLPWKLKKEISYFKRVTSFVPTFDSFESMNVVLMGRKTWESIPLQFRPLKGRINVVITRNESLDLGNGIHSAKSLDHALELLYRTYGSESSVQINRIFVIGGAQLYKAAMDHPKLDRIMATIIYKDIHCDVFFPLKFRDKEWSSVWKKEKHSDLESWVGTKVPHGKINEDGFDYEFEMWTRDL
Description: Inhibition of Pneumocystis carinii dihydrofolate reductase

In assay [2] the target is T2, Dihydrofolate reductase (Rattus norvegicus, UniProt Q920D2).
T2 sequence (Q920D2 whole entry): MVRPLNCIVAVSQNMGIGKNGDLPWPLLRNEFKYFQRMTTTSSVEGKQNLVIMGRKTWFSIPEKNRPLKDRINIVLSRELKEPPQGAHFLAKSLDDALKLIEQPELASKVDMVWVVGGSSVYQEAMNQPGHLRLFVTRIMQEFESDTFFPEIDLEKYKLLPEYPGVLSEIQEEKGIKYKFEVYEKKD
Description: Inhibition of rat liver dihydrofolate reductase

Assay [3] deals with T3, Dihydrofolate reductase (Rattus norvegicus) (UniProt Q920D2).
T3 sequence (whole entry): T2 sequence (Q920D2 whole entry)
Nature of the assay: Percent inhibition against rat liver Dihydrofolate reductase. More on the design: concentration or dose not given beside the values. As to conditions: concentration not given here.

Assay [4] has as its target T4, Bifunctional dihydrofolate reductase-thymidylate synthase (Toxoplasma gondii) (UniProt Q07422).
T4 sequence (whole entry): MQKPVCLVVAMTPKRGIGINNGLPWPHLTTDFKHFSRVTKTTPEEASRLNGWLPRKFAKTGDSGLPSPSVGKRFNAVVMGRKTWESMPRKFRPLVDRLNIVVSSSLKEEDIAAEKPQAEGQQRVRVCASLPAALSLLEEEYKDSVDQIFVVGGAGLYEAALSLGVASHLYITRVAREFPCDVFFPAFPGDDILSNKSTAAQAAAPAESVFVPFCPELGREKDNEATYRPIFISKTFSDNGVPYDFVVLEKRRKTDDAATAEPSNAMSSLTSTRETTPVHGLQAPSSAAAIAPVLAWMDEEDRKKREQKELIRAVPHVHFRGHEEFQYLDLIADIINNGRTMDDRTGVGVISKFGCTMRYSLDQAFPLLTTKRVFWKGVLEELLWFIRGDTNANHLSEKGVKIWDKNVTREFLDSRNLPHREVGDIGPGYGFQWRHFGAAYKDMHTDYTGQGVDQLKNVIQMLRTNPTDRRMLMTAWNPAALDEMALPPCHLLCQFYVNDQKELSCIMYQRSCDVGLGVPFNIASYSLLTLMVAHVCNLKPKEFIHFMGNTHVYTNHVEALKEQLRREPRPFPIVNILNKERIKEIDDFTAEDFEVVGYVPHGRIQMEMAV
Nature of the assay: Percent inhibition against Toxoplasma gondii Dihydrofolate reductase. As to conditions: concentration not given here.

Assay [5] has as its target T5, Bifunctional dihydrofolate reductase-thymidylate synthase (Toxoplasma gondii, UniProt Q07422).
T5 sequence (Q07422 whole entry): T4 sequence (whole entry)
Put plainly: Inhibition of Toxoplasma gondii dihydrofolate reductase.

The term IC50 denotes the concentration that gives 50% inhibition. Consider `COc1ccc(-c2nc3c(N)nc(N)nc3[nH]2)cc1OC`, for which the results for the IC50 on Dihydrofolate reductase [1] and against Dihydrofolate reductase [2] were 12 µM and 52.3 µM, respectively.
For `Nc1nc(N)c2nc(C3c4ccccc4-c4ccccc43)[nH]c2n1`, at Dihydrofolate reductase [1], 35 µM corresponded to half-maximal inhibition (IC50).
The inhibition is the percentage by which the read-out fell short of the control. As to `COc1cc(NCc2nc3[nH]c(N)nc(N)c-3n2)cc(OC)c1OC`, the inhibition came to 19% in assay [3] and 5% in assay [4].
Consider `Nc1nc(N)c2[nH]c(CSc3ccc4ccccc4c3)nc2n1`, for which the IC50 came to 45 µM in assay [5], 105 µM against Dihydrofolate reductase [1] and 107 µM against Dihydrofolate reductase [2].
Turning to `Nc1nc(N)c2nc(-c3ccc4ccccc4c3)[nH]c2n1`, the IC50 was found to be 27 µM in assay [5], 113 µM against Dihydrofolate reductase [1] and 280 µM at Dihydrofolate reductase [2].
The like results for `Nc1nc(N)c2nc(-c3ccccc3)[nH]c2n1` were, in that order, 28 µM, 153 µM and 59.9 µM.
Regarding `COc1cc(OC)c(-c2nc3nc(N)nc(N)c3[nH]2)c(OC)c1`, the IC50 in assay [5] was determined as 0.84 µM; against Dihydrofolate reductase [1], 31.5 µM; on Dihydrofolate reductase [2], 1.88 µM.
With `COc1ccc(OC)c(NCc2nc3c(N)nc(N)nc3[nH]2)c1`, the IC50 in assay [5] was found to be 49 µM; at Dihydrofolate reductase [1], 29 µM; at Dihydrofolate reductase [2] it was 29 µM. In addition, the inhibition in assay [3] came out at 15%.
In the case of `Nc1nc(N)c2[nH]c(-c3c(Cl)cccc3Cl)nc2n1`, the IC50 (in assay [5]; against Dihydrofolate reductase [1]; against Dihydrofolate reductase [2]) was 11 µM in each case. In addition, the figures for the inhibition in assay [3] and in assay [4] were 4% and 6%, respectively.
As to `Nc1nc(N)c2nc(Cc3ccccc3)[nH]c2n1`, the results for the IC50 (in assay [5]; on Dihydrofolate reductase [2]) were 0.5 µM and 1.6 µM, respectively.
For the compound `COc1cc(-c2nc3c(N)nc(N)nc3[nH]2)cc(OC)c1O`, the IC50 in assay [5] turned out to be 1 µM; against Dihydrofolate reductase [1] it was 68 µM; at Dihydrofolate reductase [2], 15.3 µM.
The like results for `COc1cc(-c2nc3nc(N)nc(N)c3[nH]2)cc(OC)c1OC` were, in that order, 2.2 µM, 59.4 µM and 13 µM.
In assay [3], `COc1cc(-c2nc3[nH]c(N)nc(N)c-3n2)c([N+](=O)[O-])cc1OC` came in with an inhibition of 14%.
Regarding `COc1ccc(OC)c(-c2nc3nc(N)nc(N)c3[nH]2)c1`, the IC50 worked out at 1.7 µM in assay [5], 37.4 µM against Dihydrofolate reductase [1] and 3.5 µM on Dihydrofolate reductase [2].
`COc1cc(-c2nc3nc(N)nc(N)c3[nH]2)c([N+](=O)[O-])cc1OC`: the IC50 against Dihydrofolate reductase [1] and against Dihydrofolate reductase [2] was 25 µM in each case.
Take `Nc1nc(N)c2[nH]c(-c3ccncc3)nc2n1`: the IC50 in assay [5] was determined as 20 µM; on Dihydrofolate reductase [1], 18 µM; at Dihydrofolate reductase [2], 18 µM. For the same compound, the inhibition in assay [3] is 0%; in assay [4], 14%.
Regarding `COc1ccc(-c2nc3[nH]c(N)nc(N)c-3n2)c2ccccc12`, the IC50 (in assay [5]; on Dihydrofolate reductase [1]; against Dihydrofolate reductase [2]) was 13 µM in each case. The inhibition in assay [3] was determined as 15%; in assay [4], 10%.
`COc1ccc(-c2nc3c(N)nc(N)nc3[nH]2)c(OC)c1OC`: the IC50 stood at 1.8 µM in assay [5], 17 µM on Dihydrofolate reductase [1] and 3.7 µM against Dihydrofolate reductase [2].
The like results for `Nc1nc(N)c2[nH]c(-c3ccc(-c4ccccc4)cc3)nc2n1` were, in that order, 32.9 µM, 605 µM and 30.1 µM.
Turning to `Nc1nc(N)c2[nH]c(-c3ccc(Cl)c(Cl)c3)nc2n1`, the IC50 in assay [5] was 6.7 µM; against Dihydrofolate reductase [2], 252 µM.
`COc1cc(OC)cc(-c2nc3nc(N)nc(N)c3[nH]2)c1`: the IC50 was 3 µM in assay [5] and 32.4 µM on Dihydrofolate reductase [2].
For `COc1ccc(-c2nc3nc(N)nc(N)c3[nH]2)c(OC)c1`, the IC50 in assay [5] stood at 2.4 µM; at Dihydrofolate reductase [1], 14 µM; on Dihydrofolate reductase [2], 0.9 µM.
The like results for `COc1cc(OC)c(-c2nc3nc(N)nc(N)c3[nH]2)cc1OC` were, in that order, 1.5 µM, 22 µM and 7 µM.
